One data set concerns the target T1, human S1P1 (Homo sapiens, UniProt P21453).
T1 construct: CHO-Ki Gαqi5 cells expression full-length human S1P1; expressed in transfected cells; host or cells: CHO-K1 Gαqi5 cells (printed 'CHO-Ki Gαqi5'), membranes
Kind of data set: GTPγS binding assay (scintillation proximity assay). Format: biochemical. The following applies: S1P1 membrane from CHO cells expressing full-length human S1P1; GTPγ35S, 60 minutes. The method, then: S1P1 membrane is prepared from CHO-Ki Gαqi5 cells expression full-length human S1P1. Scintillation proximity assay (SPA) is performed by incubating membranes, GTPγ^35S, and compounds at various concentrations for 60 minutes. Wheat germ agglutinin-coated SPA beads are added and incubated for 60 minutes before centrifugation and scintillation counting. EC50 data for Compound 1 found to be <1 μM.
(In general: GTPγS is a poorly hydrolysed GTP analogue; its binding reports G protein activation.)

Data set [1] is described as follows: Thermodynamic stability relationship of anhydrates (heating; slurry competition). Format: physicochemical. The settings on record: for XRPD result, slurry competition Form 6 and Form 1: five days. The method, then: As a result, slurry competition was performed for Form 6 and Form 1 in acetone and THF systems at 5° C., RT and 50° C. After stirring at desired temperature for five days, the solids were isolated and analyzed by XRPD.

Data set [2] is described as follows: Dynamic vapor sorption (DVS). Format: physicochemical. The following applies: 25° C. The method, then:
DVS studies were performed using a DVS Intrinsic (SMS, UK). 10 to 20 mg of compound was transferred into the DVS and the weight change recorded with respect to a varying atmospheric humidity at 25° C. using the following parameters: • Drying at 25° C. until dm/dt<±0.002%/min • Min time: 10 min, Max time: 180 min • Equilibrium: 60 min • Cycle: 0, 5, 10, 20, 30, 40, 50, 60, 70, 80, 90, 80, 70, 60, 50, 40, 30, 20, 10, 5, 0 • Characterize the sample after the DVS experiment by XRPD

Data set [3] can be described thus: Stability study of Form 1 on storage (XRPD and HPLC). The data set is classed as physicochemical. The following applies: 80° C. for one day; 25° C./60% RH and 40° C./75% RH for one week and one month. How it is done:
Physicochemical stability was evaluated for Form 1 via storing samples under 80° C. for one day, 25° C./60% RH and 40° C./75% RH for one week and one month.

A short description of data set [4]: Critical water activity study between Form 1 and Form 7. The data set is classed as physicochemical. The settings on record: for XRPD result after slurry: RT, overnight. From the text: Critical water activity between anhydrous From 1 and hydrous Form 7 was investigated via slurry in MeOH/H2O system with various water activities at room temperature. After stirring overnight, the solids were isolated and analyzed by XRPD.

A short description of data set [5]: Solubility evaluation of Form 1 and Form 2 in DCM/MeOH. The settings on record: for concentration dissolved in DCM/MeOH: room temperature or 50° C. Format: physicochemical. The method, then: The solubility of Form 1 and Form 2 was evaluated in the same vehicle. Form 1 or Form 2 was added into DCM/MeOH and stirred to dissolve at room temperature or 50° C. A certain amount of HPMC-AS was then added into solution at room temperature, if a clear solution was obtained. Form 2 dissolved in DCM/MeOH at a concentration of 13 mg/mL, while Form 1 dissolved in a lower concentration, 10 mg/mL.

Data set [6] in a line: Form 2 stability via slurry in acetone and methanol/water. Format: physicochemical. The settings on record: solids isolated at 1 h, 3 h, 5 h, 29 h. How it is done: Form 2 stability was also evaluated via slurry in acetone and methanol/water at RT. Solids were isolated at 1 h, 3 h, 5 h and 29 h time points.

A value given as a limit tells only on which side of the number the result lay.

This is an account of results in patent publication US12612401B2, “Crystalline forms of an S1P receptor modulator” (Oppilan Pharma Limited, priority 2022, dated 2026).

T1 sequence (P21453 whole entry): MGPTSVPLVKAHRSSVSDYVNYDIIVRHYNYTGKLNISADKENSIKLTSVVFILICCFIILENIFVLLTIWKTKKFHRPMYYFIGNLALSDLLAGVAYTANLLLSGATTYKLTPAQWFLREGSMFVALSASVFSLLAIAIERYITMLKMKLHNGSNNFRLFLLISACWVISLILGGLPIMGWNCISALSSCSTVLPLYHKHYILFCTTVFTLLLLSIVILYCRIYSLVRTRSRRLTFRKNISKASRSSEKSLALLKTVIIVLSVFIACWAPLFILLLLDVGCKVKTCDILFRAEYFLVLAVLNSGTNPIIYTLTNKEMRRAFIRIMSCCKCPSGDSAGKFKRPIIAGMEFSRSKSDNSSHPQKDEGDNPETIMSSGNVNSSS

Consider `O=C1CC[C@@H](Oc2cc(Cl)c(-c3noc(-c4cn5cc(C(F)(F)F)cc(Cl)c5n4)n3)cc2Cl)CN1` [Compound 1, (R)-5-(2,5-dichloro-4-(5-(8-chloro-6-(trifluoromethyl)imidazo[1,2-a]pyridin-2-yl)-1,2,4-oxadiazol-3-yl)phenoxy)piperidin-2-one], for which the EC50 (as a rule, the midpoint of the concentration-response curve) at human S1P1 was less than 1000 nM.
For the compound `O=C1CC[C@@H](Oc2cc(Cl)c(-c3noc(-c4cn5cc(C(F)(F)F)cc(Cl)c5n4)n3)cc2Cl)CN1` [Form 6, (R)-5-(2,5-dichloro-4-(5-(8-chloro-6-(trifluoromethyl)imidazo[1,2-a]pyridin-2-yl)-1,2,4-oxadiazol-3-yl)phenoxy)piperidin-2-one], the “thermodynamic relationship to Form 5” value in data set [1] (according to the Burger-Ramberger Rules) is “monotropically related to Form 5 and is thermodynamically more stable”.
`O=C1CC[C@@H](Oc2cc(Cl)c(-c3noc(-c4cn5cc(C(F)(F)F)cc(Cl)c5n4)n3)cc2Cl)CN1` [Form 1, (R)-5-(2,5-dichloro-4-(5-(8-chloro-6-(trifluoromethyl)imidazo[1,2-a]pyridin-2-yl)-1,2,4-oxadiazol-3-yl)phenoxy)piperidin-2-one]: the hygroscopicity entry in data set [2] (DVS) was “slightly hygroscopic”. Moreover, the “Post-DVS analysis by XRPD” value in data set [2] (after DVS cycle 0-90-0% RH) is “no change”. Moreover, in data set [2] (between 0-80% RH), the moisture uptake stood at 0.3%. Moreover, the “change in HPLC purity after storage (chemical stability)” value in data set [3] is recorded as “no substantial change in HPLC purity”. In data set [3], the “form change after storage (XRPD)” value is recorded as “no form change”. The “XRPD result, slurry competition Form 6 and Form 1” value in data set [1] (THF, 5° C.) is given as “Form 1”; in data set [1] (THF, 50° C.), “Form 1”; in data set [1] (THF, room temperature), “Form 1”; in data set [1] (acetone, 5° C.), “Form 1”; in data set [1] (acetone, 50° C.), “Form 1”; in data set [1] (acetone, room temperature), “Form 1”. In addition, the “relative stability versus Form 7” value in data set [4] (MeOH/H2O slurry, water activities 0.0-1.0, RT) was “more stable under selected conditions”. Also, in data set [5] (DCM 1.633 g, MeOH 0.334 g, Form 1 0.0165 g, AcOH 0.0022 g, HPMC-AS 0.0549 g), the “Result (dissolution on heating), Experiment E” value is “Dissolved at 50 °C”. The “Result (clarity after stirring for 64 h), Experiment E” value in data set [5] (DCM 1.633 g, MeOH 0.334 g, Form 1 0.0165 g, AcOH 0.0022 g, HPMC-AS 0.0549 g, after stirring for 64 h) is “Clear at 25 °C after”. In data set [5] (DCM 1.633 g, MeOH 0.334 g, Form 1 0.02 g, AcOH 0.0022 g, HPMC-AS 0.0664 g), the “Result (dissolution), Experiment C” value was “Hazy at 50 °C”. Also, the “Result (dissolution on heating), Experiment D” value in data set [5] (DCM 4.083 g, MeOH 0.834 g, Form 1 0.0414 g, HPMC-AS 0.1378 g) is “Dissolved at 50 °C”. Moreover, the “Result (clarity after stirring for 64 h), Experiment D” value in data set [5] (DCM 4.083 g, MeOH 0.834 g, Form 1 0.0414 g, HPMC-AS 0.1378 g, after stirring for 64 h) was “Clear at 25 °C after”. In data set [5] (DCM 4.083 g, MeOH 0.835 g, Form 1 0.05 g, HPMC-AS 0.166 g), the “Result (dissolution), Experiment B” value was “Hazy at 50 °C”. The “concentration dissolved in DCM/MeOH” value in data set [5] came out at 10000 µg/mL.
On to `O=C1CC[C@@H](Oc2cc(Cl)c(-c3noc(-c4cn5cc(C(F)(F)F)cc(Cl)c5n4)n3)cc2Cl)CN1` [Form 7, (R)-5-(2,5-dichloro-4-(5-(8-chloro-6-(trifluoromethyl)imidazo[1,2-a]pyridin-2-yl)-1,2,4-oxadiazol-3-yl)phenoxy)piperidin-2-one], for which the “XRPD result after slurry” value is given as “Form 1” in data set [4] (MeOH/H2O 0:1000, Aw 1.0); “Form 1” in data set [4] (MeOH/H2O 219:781, Aw 0.9); “Form 1” in data set [4] (MeOH/H2O 418:582, Aw 0.8); “Form 1” in data set [4] (MeOH/H2O 573:427, Aw 0.7); “Form 1” in data set [4] (MeOH/H2O 687:313, Aw 0.6); “Form 1” in data set [4] (MeOH/H2O 775:225, Aw 0.5). Besides, the “XRPD result after slurry” value in data set [4] (MeOH/H2O 844:156, Aw 0.4) is reported as “Form 1”; in data set [4] (MeOH/H2O 893:107, Aw 0.3), “Form 1”; in data set [4] (MeOH/H2O 937:63, Aw 0.2), “Form 1”; in data set [4] (MeOH/H2O 1000:0, Aw 0.0), “Form 1”. Besides, the “form conversion in MeOH/H2O slurry” value in data set [4] (all water activities at RT, stirring overnight) is “converted to Form 1”.
Turning to `O=C1CC[C@@H](Oc2cc(Cl)c(-c3noc(-c4cn5cc(C(F)(F)F)cc(Cl)c5n4)n3)cc2Cl)CN1` [Form 2, (R)-5-(2,5-dichloro-4-(5-(8-chloro-6-(trifluoromethyl)imidazo[1,2-a]pyridin-2-yl)-1,2,4-oxadiazol-3-yl)phenoxy)piperidin-2-one], the “XRPD analysis after slurry” value in data set [6] (slurry in acetone at RT) and in data set [6] (slurry in methanol/water at RT) was “Form 1 formation in both solvents within one hour” each time. Further, the “Result (dissolution), Experiment A” value in data set [5] (DCM 3.679 g, MeOH 0.752 g, Form 2 0.05 g, HPMC-AS 0.150 g) was “Clear at room”. The “solubility compared with Form 1” value in data set [5] (DCM/MeOH vehicle) was “better solubility than Form 1”. The “concentration dissolved in DCM/MeOH” value in data set [5] was 13000 µg/mL.
For the compound `O=C1CC[C@@H](Oc2cc(Cl)c(-c3noc(-c4cn5cc(C(F)(F)F)cc(Cl)c5n4)n3)cc2Cl)CN1` [Form 5, (R)-5-(2,5-dichloro-4-(5-(8-chloro-6-(trifluoromethyl)imidazo[1,2-a]pyridin-2-yl)-1,2,4-oxadiazol-3-yl)phenoxy)piperidin-2-one], in data set [1] (heating, exothermic signal observed), the “form change during heating” value is on record as “Form 6 formed at elevated temperature”.
